Molecules are shown by their SMILES.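 Values below derive from 48-hour exposures of cells grown in 96-well plates, with endpoints linearly interpolated between the two concentrations bracketing the appropriate inhibition level. GI50: concentration for 50% inhibition of growth.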 Activity calls are given as the source filed them. Rule as the data show it: active = GI50 up to about 1.1 µM and inactive = higher. A value given as a limit tells only on which side of the number the result lay.

Test systems include SK-MEL-5; SR; U-251; HOP-62; HOP-92; HCT-116; NCI-H226; K562; HL-60; HT-29; MCF7; Malme-3M; RPMI-8226; COLO 205; CCRF-CEM; SK-MEL-28; SK-OV-3; UO-31; SNB-75.
Holding throughout (assay): NCI anticancer screen, dose series, 48 h

On to `CC(C)(C)CNC(=O)NCn1cc(-c2ccccc2)nn1`, for which the GI50 with SK-MEL-5, in the experiment on SR, in the experiment with U-251, in the experiment with HOP-62, in the experiment on HOP-92 and in the experiment with HCT-116 was > 100 µM (inactive) each time. Also, the GI50 with NCI-H226 was 64.6 µM (inactive); in the experiment with K562, > 100 µM (inactive); with HL-60, > 100 µM (inactive); in the experiment on HT-29 it was > 100 µM (inactive); in the experiment with MCF7, > 100 µM (inactive); in the experiment with Malme-3M, > 100 µM (inactive). The GI50 with RPMI-8226, in the experiment on COLO 205, in the experiment on CCRF-CEM and in the experiment with SK-MEL-28 was > 100 µM (inactive) in each case.

In the case of `CC1(C)OC2COC(c3n[nH]c4c(=O)[nH]c(=O)[nH]c34)C2O1` (configuration not stated), the GI50 was > 100 µM (inactive) in the experiment on SK-OV-3; > 100 µM (inactive) in the experiment with SK-MEL-5; > 100 µM (inactive) with SR; > 100 µM (inactive) in the experiment with U-251; > 100 µM (inactive) with HOP-62; 74 µM (inactive) in the experiment with HOP-92. In addition, the GI50 in the experiment with HCT-116, in the experiment with NCI-H226, in the experiment on K562, in the experiment on HL-60, with HT-29 and in the experiment with MCF7 was > 100 µM (inactive) throughout. For the same compound, the GI50 in the experiment on UO-31, in the experiment on Malme-3M, in the experiment on RPMI-8226, in the experiment on COLO 205 and in the experiment with SK-MEL-28 was > 100 µM (inactive) throughout.

In the case of `CCC1(CCSC(=N)N)C(=O)NC(=O)NC1=O`, the GI50 in the experiment with SK-OV-3, in the experiment on SK-MEL-5, in the experiment on SR, in the experiment with U-251, in the experiment on HOP-62 and with HOP-92 was > 100 µM (inactive) each time. Besides, the GI50 was > 100 µM (inactive) in the experiment on HCT-116; > 100 µM (inactive) in the experiment on NCI-H226; > 100 µM (inactive) in the experiment on K562; 48.9 µM (inactive) in the experiment with HL-60; > 100 µM (inactive) with HT-29; > 100 µM (inactive) in the experiment with MCF7. Besides, the GI50 in the experiment on UO-31, in the experiment with Malme-3M, in the experiment on RPMI-8226, with COLO 205, with CCRF-CEM and with SK-MEL-28 was > 100 µM (inactive) each time.

With `O=[N+]([O-])/C=C/c1cn(CCCCCCCCCCCCn2cc(/C=C/[N+](=O)[O-])c3ccccc32)c2ccccc12`, the GI50 in the experiment on SK-OV-3, in the experiment on SK-MEL-5, in the experiment with SR, with U-251, in the experiment on HOP-62 and in the experiment with HOP-92 was > 100 µM (inactive) each time. In addition, the GI50 in the experiment on HCT-116, with NCI-H226, in the experiment with HL-60, in the experiment with HT-29, in the experiment with MCF7 and in the experiment on UO-31 was > 100 µM (inactive) throughout. Further, the GI50 with Malme-3M, in the experiment on RPMI-8226, in the experiment with COLO 205, in the experiment with CCRF-CEM and in the experiment on SK-MEL-28 was > 100 µM (inactive) each time.

On to `CCc1ccc(Nc2cc(=O)[nH]c(SCc3ccccc3)n2)cc1`, for which the GI50 in the experiment on SK-OV-3 was > 100 µM (inactive); in the experiment on SK-MEL-5, 78 µM (inactive); in the experiment on SR, > 100 µM (inactive); in the experiment with SNB-75, 30.3 µM (inactive); in the experiment with HOP-62 it was 32.5 µM (inactive); with HOP-92, 31.2 µM (inactive). Further, the GI50 in the experiment on HCT-116 was 80.7 µM (inactive); in the experiment with NCI-H226 it was > 100 µM (inactive); in the experiment with K562 it was > 100 µM (inactive); with HL-60 it was > 100 µM (inactive); in the experiment on HT-29 it was > 100 µM (inactive); in the experiment on MCF7 it was > 100 µM (inactive). In addition, the GI50 in the experiment on UO-31, with Malme-3M, with RPMI-8226, in the experiment with COLO 205 and in the experiment on CCRF-CEM was > 100 µM (inactive) in each case.

As for `NC(=O)c1ncn(C2CCC(CP(=O)(O)O)C2)c1N` (configuration not stated), the GI50 with SK-OV-3, in the experiment on SK-MEL-5, with SR, in the experiment on SNB-75, in the experiment with U-251 and with HOP-62 was > 100 µM (inactive) each time. Moreover, the GI50 with HOP-92, in the experiment on HCT-116, in the experiment with NCI-H226, in the experiment with HT-29, in the experiment on MCF7 and in the experiment with UO-31 was > 100 µM (inactive) each time. Besides, the GI50 in the experiment on Malme-3M, in the experiment with RPMI-8226, with COLO 205 and in the experiment with SK-MEL-28 was > 100 µM (inactive) throughout.

Take `Cc1nn(-c2ccccc2)c2c1C(c1ccc(Cl)cc1)NC(=S)N2` (configuration not stated): the GI50 in the experiment on SK-OV-3 is 22.9 µM (inactive); in the experiment on SK-MEL-5 it was 20.3 µM (inactive); in the experiment on SR, 36.6 µM (inactive); in the experiment with SNB-75 it was 48.5 µM (inactive); in the experiment with U-251, 19.5 µM (inactive); in the experiment on HOP-62 it was 16.1 µM (inactive). Also, the GI50 was 7.18 µM (inactive) in the experiment on HOP-92; 20 µM (inactive) with HCT-116; 25.9 µM (inactive) with NCI-H226; 36.1 µM (inactive) in the experiment on K562; 31.9 µM (inactive) in the experiment on HL-60; 30.5 µM (inactive) in the experiment with HT-29. In addition, the GI50 is 28.4 µM (inactive) in the experiment on MCF7; 15 µM (inactive) in the experiment with UO-31; 28.2 µM (inactive) with Malme-3M; 19.1 µM (inactive) in the experiment with RPMI-8226; 17.2 µM (inactive) in the experiment with COLO 205; 20.9 µM (inactive) in the experiment on CCRF-CEM.

On to `CC(C)(C)OC(=O)N1C(c2cccnc2)=CC[C@H]2C3CC=C(c4cccnc4)[C@@]3(C)CC[C@@H]21` (some centres not stated), for which the GI50 with SK-OV-3 was 4.54 µM (inactive); with SK-MEL-5, 2.07 µM (inactive); with SR it was 3.28 µM (inactive); with SNB-75, 5.6 µM (inactive); with U-251, 3.36 µM (inactive); in the experiment on HOP-62, 2.79 µM (inactive). Also, the GI50 was 2.52 µM (inactive) in the experiment with HOP-92; 4.04 µM (inactive) in the experiment with HCT-116; 3.56 µM (inactive) in the experiment with NCI-H226; 0.52 µM (active) in the experiment with K562; 1.97 µM (inactive) in the experiment with HL-60; 3.53 µM (inactive) in the experiment on HT-29. Further, the GI50 was 2.81 µM (inactive) in the experiment on MCF7; 4.95 µM (inactive) in the experiment with UO-31; 3.44 µM (inactive) in the experiment on Malme-3M; 1.82 µM (inactive) in the experiment on RPMI-8226; 1.74 µM (inactive) with COLO 205; 3.99 µM (inactive) in the experiment on CCRF-CEM.

The values above are taken from ChEMBL document CHEMBL1201862, “PubChem BioAssay data set” (2004).
